Structures are written as SMILES. Active and inactive are the calls of the source. No cut-off for these calls is given here.

Tested on in one experiment: not listed separately
Kind of experiment: Downregulation of AR protein expression in human LAPC4 cells assessed as AR levels at 10 uM incubated for 24 hrs by immunoblotting analysis. It is filed as functional.
Details: not given
(In general: In western blotting, separated proteins are transferred to a membrane and probed.)
For `C[C@]12Cc3cn(-c4ccc(C#N)cc4)nc3C[C@@H]1CC[C@@H]1[C@@H]2CC[C@]2(C)[C@@H](O)CC[C@@H]12`, the Activity entry is listed as “>=100%”.
With `C[C@]12Cc3cnn(-c4ccccc4)c3C[C@@H]1CC[C@@H]1[C@@H]2CC[C@]2(C)[C@@H](O)CC[C@@H]12`, the Activity entry is on record as “>=100%”.
The same measure, in the same setting: with `C[C@]12Cc3c(nn(-c4ccccc4)c3-c3ccc(Cl)cc3)C[C@@H]1CC[C@@H]1[C@@H]2CC[C@]2(C)[C@@H](O)CC[C@@H]12` the entry was “>=100%”; with `Cc1ccc(-n2cc3c(n2)C[C@@H]2CC[C@@H]4[C@H](CC[C@]5(C)[C@@H](O)CC[C@@H]45)[C@@]2(C)C3)cc1`, “>=100%”.
On the same count and under the same terms, with `C[C@]12Cc3c(nn(-c4ccccc4)c3-c3ccccc3)C[C@@H]1CC[C@@H]1[C@@H]2CC[C@]2(C)C(=O)CC[C@@H]12` the entry was “>=100%”; with `Cc1c2c(nn1C)C[C@@H]1CC[C@@H]3[C@H](CC[C@]4(C)[C@@H](O)CC[C@@H]34)[C@@]1(C)C2`, 98%.

In another experiment the test system is DU-145. Nature of the experiment: Cytotoxicity against human DU-145 cells assessed as cell viability at 20 uM incubated for 72 hrs by resazurin dye based microplate reader assay. It is filed as functional. The settings on record: read-out: Activity. Background: Resazurin is reduced to fluorescent resorufin, in cell work by metabolically active cells.
Consider `C[C@]12Cc3cn(-c4ccc(C#N)cc4)nc3C[C@@H]1CC[C@@H]1[C@@H]2CC[C@]2(C)[C@@H](O)CC[C@@H]12`, for which the viability at 20 µM was 97%.
Take `C[C@]12Cc3cnn(-c4ccccc4)c3C[C@@H]1CC[C@@H]1[C@@H]2CC[C@]2(C)[C@@H](O)CC[C@@H]12`: the viability at 20 µM is 97%.
Still for that read-out and setting: the result for `C[C@]12Cc3c(nn(-c4ccccc4)c3-c3ccc(Cl)cc3)C[C@@H]1CC[C@@H]1[C@@H]2CC[C@]2(C)[C@@H](O)CC[C@@H]12` reads 5%.
On the same count and under the same terms, with `Cc1ccc(-n2cc3c(n2)C[C@@H]2CC[C@@H]4[C@H](CC[C@]5(C)[C@@H](O)CC[C@@H]45)[C@@]2(C)C3)cc1` the figure was 100%; with `C[C@]12Cc3c(nn(-c4ccccc4)c3-c3ccccc3)C[C@@H]1CC[C@@H]1[C@@H]2CC[C@]2(C)C(=O)CC[C@@H]12`, 19%.
Take `Cc1c2c(nn1C)C[C@@H]1CC[C@@H]3[C@H](CC[C@]4(C)[C@@H](O)CC[C@@H]34)[C@@]1(C)C2`: the viability at 20 µM is 98%.

The test system of a further experiment is LAPC4. Nature of the experiment: Inhibition of colony formation in human LAPC4 cells at 10 uM incubated for 10 days by crystal violet staining based assay. The conditions noted are these: LAPC4, 240 h, time 10 day. It is filed as functional.
`C[C@]12Cc3cn(-c4ccc(C#N)cc4)nc3C[C@@H]1CC[C@@H]1[C@@H]2CC[C@]2(C)[C@@H](O)CC[C@@H]12`: testing at 10 µM gave an inhibition of 76%.
Same read-out and setting: with `C[C@]12Cc3cnn(-c4ccccc4)c3C[C@@H]1CC[C@@H]1[C@@H]2CC[C@]2(C)[C@@H](O)CC[C@@H]12` the figure was 1%; with `C[C@]12Cc3c(nn(-c4ccccc4)c3-c3ccc(Cl)cc3)C[C@@H]1CC[C@@H]1[C@@H]2CC[C@]2(C)[C@@H](O)CC[C@@H]12`, 47%; with `Cc1ccc(-n2cc3c(n2)C[C@@H]2CC[C@@H]4[C@H](CC[C@]5(C)[C@@H](O)CC[C@@H]45)[C@@]2(C)C3)cc1`, 42%.
On the same count and under the same terms, the result for `C[C@]12Cc3c(nn(-c4ccccc4)c3-c3ccccc3)C[C@@H]1CC[C@@H]1[C@@H]2CC[C@]2(C)C(=O)CC[C@@H]12` reads 19%; that for `Cc1c2c(nn1C)C[C@@H]1CC[C@@H]3[C@H](CC[C@]4(C)[C@@H](O)CC[C@@H]34)[C@@]1(C)C2`, 36%.

The subject of another experiment is CWR22R. Nature of the experiment: Cytotoxicity against human 22Rv1 cells assessed as cell viability at 20 uM incubated for 72 hrs by resazurin dye based microplate reader assay. The settings on record: read-out: Activity. It is filed as functional.
Take `C[C@]12Cc3cn(-c4ccc(C#N)cc4)nc3C[C@@H]1CC[C@@H]1[C@@H]2CC[C@]2(C)[C@@H](O)CC[C@@H]12`: the viability at 20 µM turned out to be 94%.
The same measure, in the same setting: with `C[C@]12Cc3cnn(-c4ccccc4)c3C[C@@H]1CC[C@@H]1[C@@H]2CC[C@]2(C)[C@@H](O)CC[C@@H]12` the figure was 36%.
Still for that read-out and setting: with `C[C@]12Cc3c(nn(-c4ccccc4)c3-c3ccc(Cl)cc3)C[C@@H]1CC[C@@H]1[C@@H]2CC[C@]2(C)[C@@H](O)CC[C@@H]12` the figure was 4%; with `Cc1ccc(-n2cc3c(n2)C[C@@H]2CC[C@@H]4[C@H](CC[C@]5(C)[C@@H](O)CC[C@@H]45)[C@@]2(C)C3)cc1`, not below 100%.
The same measure, in the same setting: with `C[C@]12Cc3c(nn(-c4ccccc4)c3-c3ccccc3)C[C@@H]1CC[C@@H]1[C@@H]2CC[C@]2(C)C(=O)CC[C@@H]12` the figure was 19%; with `Cc1c2c(nn1C)C[C@@H]1CC[C@@H]3[C@H](CC[C@]4(C)[C@@H](O)CC[C@@H]34)[C@@]1(C)C2`, 52%.

The next experiment has as its system LAPC4. Kind of experiment: Cytotoxicity against human LAPC4 cells assessed as cell viability at 20 uM incubated for 72 hrs by resazurin dye based microplate reader assay. It is filed as functional. The conditions noted are these: read-out: Activity.
As to `C[C@]12Cc3cn(-c4ccc(C#N)cc4)nc3C[C@@H]1CC[C@@H]1[C@@H]2CC[C@]2(C)[C@@H](O)CC[C@@H]12`, the viability at 20 µM came to 93%.
The same measure, in the same setting: with `C[C@]12Cc3cnn(-c4ccccc4)c3C[C@@H]1CC[C@@H]1[C@@H]2CC[C@]2(C)[C@@H](O)CC[C@@H]12` the figure was 60%.
The same measure, in the same setting: with `C[C@]12Cc3c(nn(-c4ccccc4)c3-c3ccc(Cl)cc3)C[C@@H]1CC[C@@H]1[C@@H]2CC[C@]2(C)[C@@H](O)CC[C@@H]12` the figure was 30%; with `Cc1ccc(-n2cc3c(n2)C[C@@H]2CC[C@@H]4[C@H](CC[C@]5(C)[C@@H](O)CC[C@@H]45)[C@@]2(C)C3)cc1`, not below 100%.
Still for that read-out and setting: the result for `C[C@]12Cc3c(nn(-c4ccccc4)c3-c3ccccc3)C[C@@H]1CC[C@@H]1[C@@H]2CC[C@]2(C)C(=O)CC[C@@H]12` reads 61%; that for `Cc1c2c(nn1C)C[C@@H]1CC[C@@H]3[C@H](CC[C@]4(C)[C@@H](O)CC[C@@H]34)[C@@]1(C)C2`, 52%.

The next experiment deals with LAPC4. Kind of experiment: Downregulation of Nkx3.1 protein expression in human LAPC4 cells at 10 uM incubated for 24 hrs by immunoblotting analysis. It is filed as functional, cell-based.
Details: not given
Regarding `C[C@]12Cc3cn(-c4ccc(C#N)cc4)nc3C[C@@H]1CC[C@@H]1[C@@H]2CC[C@]2(C)[C@@H](O)CC[C@@H]12`, the outcome was inactive.
Same read-out and setting: with `C[C@]12Cc3cnn(-c4ccccc4)c3C[C@@H]1CC[C@@H]1[C@@H]2CC[C@]2(C)[C@@H](O)CC[C@@H]12` the entry was “Active”.
On the same count and under the same terms, with `C[C@]12Cc3c(nn(-c4ccccc4)c3-c3ccc(Cl)cc3)C[C@@H]1CC[C@@H]1[C@@H]2CC[C@]2(C)[C@@H](O)CC[C@@H]12` the entry was “inactive”; with `Cc1ccc(-n2cc3c(n2)C[C@@H]2CC[C@@H]4[C@H](CC[C@]5(C)[C@@H](O)CC[C@@H]45)[C@@]2(C)C3)cc1`, “inactive”; with `C[C@]12Cc3c(nn(-c4ccccc4)c3-c3ccccc3)C[C@@H]1CC[C@@H]1[C@@H]2CC[C@]2(C)C(=O)CC[C@@H]12`, “inactive”.
Same read-out and setting: the result for `Cc1c2c(nn1C)C[C@@H]1CC[C@@H]3[C@H](CC[C@]4(C)[C@@H](O)CC[C@@H]34)[C@@]1(C)C2` reads “inactive”.

A further experiment concerns LAPC4. Kind of experiment: Downregulation of PSA protein expression in human LAPC4 cells at 10 uM incubated for 24 hrs by immunoblotting analysis.
Details: not given
It is filed as functional, cell-based.
For the compound `C[C@]12Cc3cn(-c4ccc(C#N)cc4)nc3C[C@@H]1CC[C@@H]1[C@@H]2CC[C@]2(C)[C@@H](O)CC[C@@H]12`, the result was inactive.
On the same count and under the same terms, with `C[C@]12Cc3cnn(-c4ccccc4)c3C[C@@H]1CC[C@@H]1[C@@H]2CC[C@]2(C)[C@@H](O)CC[C@@H]12` the entry was “Active”; with `C[C@]12Cc3c(nn(-c4ccccc4)c3-c3ccc(Cl)cc3)C[C@@H]1CC[C@@H]1[C@@H]2CC[C@]2(C)[C@@H](O)CC[C@@H]12`, “inactive”.
The same measure, in the same setting: with `Cc1ccc(-n2cc3c(n2)C[C@@H]2CC[C@@H]4[C@H](CC[C@]5(C)[C@@H](O)CC[C@@H]45)[C@@]2(C)C3)cc1` the entry was “inactive”; with `C[C@]12Cc3c(nn(-c4ccccc4)c3-c3ccccc3)C[C@@H]1CC[C@@H]1[C@@H]2CC[C@]2(C)C(=O)CC[C@@H]12`, “inactive”; with `Cc1c2c(nn1C)C[C@@H]1CC[C@@H]3[C@H](CC[C@]4(C)[C@@H](O)CC[C@@H]34)[C@@]1(C)C2`, “inactive”.

Broadly, the inhibition is the relative decrease from the control value, in per cent.

The values are drawn from ChEMBL document CHEMBL5346877, “A-ring-fused pyrazoles of dihydrotestosterone targeting prostate cancer cells via the downregulation of the androgen receptor” (Eur J Med Chem, 2023).
